Data reported in the CheMixHub ionic liquid set.

Experiment: xn = mol fraction of the nth substance listed

C[N+](C)(CCCS(=O)(=O)O)C1CCCCC1.Cc1ccc(S(=O)(=O)[O-])cc1 + O
101 kPa
Conditions | viscosity [mPa·s]
303.15 K, x1 = 1 | 113700
308.15 K, x1 = 0.06028 | 6.925
308.15 K, x1 = 1 | 56930
313.15 K, x1 = 0.01059 | 1.118
313.15 K, x1 = 0.06028 | 6
318.15 K, x1 = 0.01059 | 1.007
318.15 K, x1 = 0.1459 | 38.93
328.15 K, x1 = 0.01059 | 0.8334
328.15 K, x1 = 0.02771 | 1.636
328.15 K, x1 = 0.06028 | 3.944

CCC[n+]1ccccc1.N#C[N-]C#N + O
100 kPa
Conditions | electrical conductivity [S/m] | viscosity [mPa·s]
298.15 K, x1 = 0.9303 | 1.49 | –
298.15 K, x1 = 0.9562 | – | 22.43
298.15 K, x1 = 0.9708 | – | 23.39
303.15 K, x1 = 0.9303 | 1.68 | –
303.15 K, x1 = 0.9442 | 1.64 | –
303.15 K, x1 = 0.9731 | 1.57 | –
313.15 K, x1 = 0.9277 | – | 13.05
313.15 K, x1 = 0.9562 | – | 13.71
313.15 K, x2 = 0.01178 | 2.12 | –
318.15 K, x1 = 0.9442 | 2.6 | –
318.15 K, x1 = 0.9708 | – | 12.47
323.15 K, x1 = 0.9277 | – | 9.72
323.15 K, x1 = 0.9442 | 2.95 | –
323.15 K, x1 = 0.9731 | 2.87 | –
328.15 K, x1 = 0.9417 | – | 8.63
328.15 K, x1 = 0.9562 | – | 8.88
333.15 K, x1 = 0.9442 | 3.81 | –
333.15 K, x1 = 0.9731 | 3.72 | –
338.15 K, x1 = 0.9562 | – | 7.17
338.15 K, x1 = 0.9584 | 4.22 | –

CS(C)=O + CCCC[n+]1ccn(C)c1.O=S(=O)([O-])C(F)(F)F
100 kPa, x2 = 0
Conditions | viscosity [mPa·s]
298.15 K | 2.03
303.15 K | 1.84
308.15 K | 1.67
313.15 K | 1.53
318.15 K | 1.41
323.15 K | 1.3

CC(=O)[O-].CCCCCC[n+]1ccccc1 + O
electrical conductivity [S/m], 101 kPa
Conditions | x1 = 0.8711 | x1 = 0.8907 | x1 = 0.9081 | x1 = 0.9293 | x1 = 0.9699 | x2 = 0.007385
293.15 K | 0.00457 | 0.00421 | 0.00389 | 0.00337 | 0.00259 | 0.00201
298.15 K | 0.0076 | 0.00693 | 0.00609 | 0.00551 | 0.00409 | 0.00282
303.15 K | 0.0127 | 0.0115 | 0.0102 | 0.009 | 0.00656 | 0.005
308.15 K | 0.0171 | 0.0156 | 0.0139 | 0.0122 | 0.00887 | 0.00746
313.15 K | 0.0256 | 0.0229 | 0.0209 | 0.0181 | 0.014 | 0.0112
318.15 K | 0.0371 | 0.0331 | 0.03 | 0.0264 | 0.019 | 0.0155
323.15 K | 0.0501 | 0.0451 | 0.041 | 0.0365 | 0.0271 | 0.0224
328.15 K | 0.067 | 0.0608 | 0.0551 | 0.0496 | 0.0372 | 0.0318
333.15 K | 0.091 | 0.081 | 0.0727 | 0.0639 | 0.0487 | 0.0414
338.15 K | 0.124 | 0.111 | 0.101 | 0.0894 | 0.0694 | 0.0592
343.15 K | 0.163 | 0.148 | 0.135 | 0.119 | 0.0952 | 0.0819

CCCC[N+](CCCC)(CCCC)CCCC.[Cl-] + OCC(O)CO
100 kPa, x1 = 0.333
Conditions | electrical conductivity [S/m] | viscosity [mPa·s]
293.15 K | 0.0303 | 870
303.15 K | 0.0527 | 500
313.15 K | 0.0885 | 298
323.15 K | 0.144 | 184
333.15 K | 0.228 | 117

CCCC[n+]1ccn(C)c1.[Br-] + CCCCOCCO
viscosity [mPa·s], 100 kPa
Conditions | x1 = 0.1007 | x1 = 0.2003 | x1 = 0.3007 | x1 = 0.4003 | x1 = 0.5 | x1 = 0.5992 | x1 = 0.7002 | x1 = 0.8003 | x1 = 0.8978 | x1 = 1
298.15 K | 18.4 | 56.8 | 108 | 155 | 201 | 263 | 374 | 577 | 920 | 1451
303.15 K | 12.2 | 32.5 | 59.6 | 86.7 | 115 | 152 | 212 | 320 | 511 | 837
308.15 K | 9.08 | 22.8 | 40.7 | 59.4 | 77 | 98 | 132 | 187 | 297 | 506
313.15 K | 6.85 | 16.2 | 29.1 | 41.7 | 54.2 | 67.6 | 87.9 | 122 | 188 | 330
